Experimental data published in ChEMBL document CHEMBL1148029, “Synthesis and radiopharmacological characterization of 2beta-carbo-2'-[18F]fluoroethoxy-3beta-(4-bromo-phenyl)tropane ([18F]MCL-322) as a PET radiotracer for imaging the dopamine transporter (DAT)” (Bioorg Med Chem, 2007).

Experiments:
Muscle tissue = test: Biodistribution in Wistar rat muscle at 300 uCi, iv after 5 mins; format: ADME, organism-based; details: in vivo
Heart [1] = test: Biodistribution in Wistar rat heart at 300 uCi, iv after 20 mins; format: ADME, organism-based; details: in vivo
Heart [2] = test: Biodistribution in Wistar rat heart at 300 uCi, iv after 60 mins; format: ADME, organism-based; details: in vivo, 1 h
Heart [3] = test: Biodistribution in Wistar rat heart at 300 uCi, iv after 120 mins; format: ADME, organism-based; details: in vivo, 2 h
Heart [4] = test: Biodistribution in Wistar rat heart at 300 uCi, iv after 240 mins; format: ADME, organism-based; details: in vivo, 4 h
Cerebellum [5] = test: Biodistribution in Wistar rat cerebellum at 300 uCi, iv after 60 mins in presence of GBR-12909; format: ADME, organism-based; details: in vivo, 1 h
Cerebellum [6] = test: Biodistribution in Wistar rat cerebellum at 300 uCi, iv after 60 mins in presence of nisoxetine; format: ADME, organism-based; details: in vivo, 1 h
Hippocampus [7] = test: Biodistribution in Wistar rat hippocampus at 300 uCi, iv after 60 mins in presence of GBR-12909; format: ADME, organism-based; details: in vivo, 1 h
Hippocampus [8] = test: Biodistribution in Wistar rat hippocampus at 300 uCi, iv after 60 mins in presence of citalopram; format: ADME, organism-based; details: in vivo, 1 h
Hippocampus [9] = test: Biodistribution in Wistar rat hippocampus at 300 uCi, iv after 60 mins in presence of nisoxetine; format: ADME, organism-based; details: in vivo, 1 h
Testes [10] = test: Biodistribution in Wistar rat testes at 300 uCi, iv after 5 mins; format: ADME, organism-based, Testis; details: in vivo
Blood [11] = test: Biodistribution in Wistar rat blood at 300 uCi, iv after 5 mins; format: ADME, organism-based; details: in vivo
Blood [12] = test: Biodistribution in Wistar rat blood at 300 uCi, iv after 240 mins; format: ADME, organism-based; details: in vivo, 4 h
[13] = Biodistribution in Wistar rat brown fat at 300 uCi, iv after 5 mins; format: ADME, organism-based, Brown adipose tissue; details: in vivo
[14] = Biodistribution in Wistar rat brown fat at 300 uCi, iv after 240 mins; format: ADME, organism-based, Brown adipose tissue; details: in vivo, 4 h
[15] = Biodistribution in Wistar rat hair and skin at 300 uCi, iv after 120 mins; format: ADME, organism-based; details: in vivo, 2 h
Pancreas [16] = test: Biodistribution in Wistar rat pancreas at 300 uCi, iv after 120 mins; format: ADME, organism-based; details: in vivo, 2 h
Pancreas [17] = test: Biodistribution in Wistar rat pancreas at 300 uCi, iv after 240 mins; format: ADME, organism-based; details: in vivo, 4 h
Spleen [18] = test: Biodistribution in Wistar rat spleen at 300 uCi, iv after 5 mins; format: ADME, organism-based; details: in vivo
Spleen [19] = test: Biodistribution in Wistar rat spleen at 300 uCi, iv after 60 mins; format: ADME, organism-based; details: in vivo, 1 h
Spleen [20] = test: Biodistribution in Wistar rat spleen at 300 uCi, iv after 120 mins; format: ADME, organism-based; details: in vivo, 2 h
Adrenal [21] = test: Biodistribution in Wistar rat adrenal gland at 300 uCi, iv after 5 mins; format: ADME, organism-based, Adrenal tissue; details: in vivo
Adrenal [22] = test: Biodistribution in Wistar rat adrenal gland at 300 uCi, iv after 120 mins; format: ADME, organism-based, Adrenal tissue; details: in vivo, 2 h
Kidney [23] = test: Biodistribution in Wistar rat kidney at 300 uCi, iv after 5 mins; format: ADME, organism-based; details: in vivo
Kidney [24] = test: Biodistribution in Wistar rat kidney at 300 uCi, iv after 60 mins; format: ADME, organism-based; details: in vivo, 1 h
[25] = Biodistribution in Wistar rat fat at 300 uCi, iv after 5 mins; format: ADME, organism-based, Adipose tissue; details: in vivo
[26] = Biodistribution in Wistar rat fat at 300 uCi, iv after 20 mins; format: ADME, organism-based, Adipose tissue; details: in vivo
Lung = test: Biodistribution in Wistar rat lung at 300 uCi, iv after 20 mins; format: ADME, organism-based; details: in vivo
Thymus [27] = test: Biodistribution in Wistar rat thymus at 300 uCi, iv after 5 mins; format: ADME, organism-based; details: in vivo
Thymus [28] = test: Biodistribution in Wistar rat thymus at 300 uCi, iv after 60 mins; format: ADME, organism-based; details: in vivo, 1 h
Harderian gland [29] = test: Biodistribution in Wistar rat harderian glands at 300 uCi, iv after 5 mins; format: ADME, organism-based; details: in vivo
Harderian gland [30] = test: Biodistribution in Wistar rat harderian glands at 300 uCi, iv after 60 mins; format: ADME, organism-based; details: in vivo, 1 h
Harderian gland [31] = test: Biodistribution in Wistar rat harderian glands at 300 uCi, iv after 120 mins; format: ADME, organism-based; details: in vivo, 2 h
Liver [32] = test: Biodistribution in Wistar rat liver at 300 uCi, iv after 20 mins; format: ADME, organism-based; details: in vivo
Liver [33] = test: Biodistribution in Wistar rat liver at 300 uCi, iv after 60 mins; format: ADME, organism-based; details: in vivo, 1 h
Liver [34] = test: Biodistribution in Wistar rat liver at 300 uCi, iv after 120 mins; format: ADME, organism-based; details: in vivo, 2 h
Liver [35] = test: Biodistribution in Wistar rat liver at 300 uCi, iv after 240 mins; format: ADME, organism-based; details: in vivo, 4 h
Femur [36] = test: Biodistribution in Wistar rat femur at 300 uCi, iv after 5 mins; format: ADME, organism-based; details: in vivo
Femur [37] = test: Biodistribution in Wistar rat femur at 300 uCi, iv after 20 mins; format: ADME, organism-based; details: in vivo
Femur [38] = test: Biodistribution in Wistar rat femur at 300 uCi, iv after 240 mins; format: ADME, organism-based; details: in vivo, 4 h
Striatum [39] = test: Biodistribution in Wistar rat striatum at 300 uCi, iv after 5 mins; format: ADME, organism-based; details: in vivo
Striatum [40] = test: Biodistribution in Wistar rat striatum at 300 uCi, iv after 20 mins; format: ADME, organism-based; details: in vivo
Striatum [41] = test: Biodistribution in Wistar rat striatum at 300 uCi, iv after 60 mins; format: ADME, organism-based; details: in vivo, 1 h
Cerebellum [42] = test: Biodistribution in Wistar rat cerebellum at 300 uCi, iv after 20 mins; format: ADME, organism-based; details: in vivo
Hippocampus [43] = test: Biodistribution in Wistar rat hippocampus at 300 uCi, iv after 5 mins; format: ADME, organism-based; details: in vivo
Hippocampus [44] = test: Biodistribution in Wistar rat hippocampus at 300 uCi, iv after 20 mins; format: ADME, organism-based; details: in vivo
Hippocampus [45] = test: Biodistribution in Wistar rat hippocampus at 300 uCi, iv after 120 mins; format: ADME, organism-based; details: in vivo, 2 h
[46] = Biodistribution in Wistar rat rest of brain at 300 uCi, iv after 60 mins; format: ADME, organism-based; details: in vivo, 1 h
[47] = Biodistribution in Wistar rat rest of brain at 300 uCi, iv after 120 mins; format: ADME, organism-based; details: in vivo, 2 h
Blood [48] = test: Biodistribution in Wistar rat blood at 300 uCi, iv after 60 mins in presence of GBR-12909; format: ADME, organism-based; details: in vivo, 1 h
Blood [49] = test: Biodistribution in Wistar rat blood at 300 uCi, iv after 60 mins in presence of citalopram; format: ADME, organism-based; details: in vivo, 1 h
Blood [50] = test: Biodistribution in Wistar rat blood at 300 uCi, iv after 60 mins in presence of nisoxetine; format: ADME, organism-based; details: in vivo, 1 h
Striatum [51] = test: Biodistribution in Wistar rat striatum at 300 uCi, iv after 60 mins in presence of nisoxetine; format: ADME, organism-based; details: in vivo, 1 h
Brain [52] = test: Biodistribution in Wistar rat rest of brain at 300 uCi, iv after 60 mins in presence of GBR-12909; format: ADME, organism-based; details: in vivo, 1 h
Brain [53] = test: Biodistribution in Wistar rat rest of brain at 300 uCi, iv after 60 mins in presence of nisoxetine; format: ADME, organism-based; details: in vivo, 1 h
Cortex [54] = test: Biodistribution in Wistar rat cortex at 300 uCi, iv after 120 mins; format: ADME, organism-based; details: in vivo, 2 h
Cortex [55] = test: Biodistribution in Wistar rat cortex at 300 uCi, iv after 240 mins; format: ADME, organism-based; details: in vivo, 4 h
Testes [56] = test: Biodistribution in Wistar rat testes at 300 uCi, iv after 20 mins; format: ADME, organism-based, Testis; details: in vivo
Testes [57] = test: Biodistribution in Wistar rat testes at 300 uCi, iv after 60 mins; format: ADME, organism-based, Testis; details: in vivo, 1 h
Plasma [58] = test: Metabolic stability in Wistar rat plasma assessed as polar metabolite level at 1 mCi, iv after 1.5 mins; format: ADME, organism-based; details: in vivo, 0.025 h
Plasma [59] = test: Metabolic stability in Wistar rat plasma assessed as polar metabolite level at 1 mCi, iv after 240 mins; format: ADME, organism-based; details: in vivo, 4 h

`CN1C2CCC1C(C(=O)OCC[18F])C(c1ccc(Br)cc1)C2` (stereo unspecified) gave a Drug uptake (Muscle tissue) of 0.42 % ID/g, a Drug uptake (Heart [1]) of 0.48 % ID/g and a Drug uptake (Heart [2]) of 0.21 % ID/g. For the same molecule, the Drug uptake (Heart [3]) was 0.12 % ID/g, the Drug uptake (Heart [4]) was 0.07 % ID/g and the Drug uptake (Cerebellum [5]) was 0.62 % ID/g. For the same molecule, the Drug uptake (Cerebellum [6]) was 0.63 % ID/g, the Drug uptake (Hippocampus [7]) was 1.06 % ID/g and the Drug uptake (Hippocampus [8]) was 1.36 % ID/g. For the same molecule, the Drug uptake (Hippocampus [9]) was 0.91 % ID/g, the Drug uptake (Testes [10]) was 0.33 % ID/g and the Drug uptake (Blood [11]) was 0.16 % ID/g. For the same molecule, the Drug uptake (Blood [12]) was 0.03 % ID/g, the Drug uptake [13] was 1.46 % ID/g and the Drug uptake [14] was 0.08 % ID/g. The Drug uptake [15] was 0.17 % ID/g, the Drug uptake (Pancreas [16]) was 0.29 % ID/g and the Drug uptake (Pancreas [17]) was 0.13 % ID/g. The Drug uptake (Spleen [18]) was 1.51 % ID/g, the Drug uptake (Spleen [19]) was 0.58 % ID/g and the Drug uptake (Spleen [20]) was 0.29 % ID/g. The Drug uptake (Adrenal [21]) was 3.57 % ID/g, the Drug uptake (Adrenal [22]) was 0.35 % ID/g and the Drug uptake (Kidney [23]) was 4.64 % ID/g. It also gave a Drug uptake (Kidney [24]) of 3.1 % ID/g, a Drug uptake [25] of 4.64 % ID/g and a Drug uptake [26] of 0.48 % ID/g. The Drug uptake (Lung) was 2.58 % ID/g, the Drug uptake (Thymus [27]) was 0.89 % ID/g and the Drug uptake (Thymus [28]) was 0.41 % ID/g. For the same molecule, the Drug uptake (Harderian gland [29]) was 1.46 % ID/g, the Drug uptake (Harderian gland [30]) was 2.37 % ID/g and the Drug uptake (Harderian gland [31]) was 1.82 % ID/g. It also gave a Drug uptake (Liver [32]) of 6.8 % ID/g, a Drug uptake (Liver [33]) of 11.8 % ID/g and a Drug uptake (Liver [34]) of 15.7 % ID/g. It also gave a Drug uptake (Liver [35]) of 15.2 % ID/g, a Drug uptake (Femur [36]) of 0.59 % ID/g and a Drug uptake (Femur [37]) of 0.42 % ID/g. The Drug uptake (Femur [38]) was 0.07 % ID/g, the Drug uptake (Striatum [39]) was 3.23 % ID/g and the Drug uptake (Striatum [40]) was 3.93 % ID/g. The Drug uptake (Striatum [41]) was 3.71 % ID/g, the Drug uptake (Cerebellum [42]) was 1.37 % ID/g and the Drug uptake (Hippocampus [43]) was 2.37 % ID/g. The Drug uptake (Hippocampus [44]) was 1.99 % ID/g, the Drug uptake (Hippocampus [45]) was 0.42 % ID/g and the Drug uptake [46] was 1.1 % ID/g. The Drug uptake [47] was 0.59 % ID/g, the Drug uptake (Blood [48]) was 0.04 % ID/g and the Drug uptake (Blood [49]) was 0.052 % ID/g. The Drug uptake (Blood [50]) was 0.04 % ID/g, the Drug uptake (Striatum [51]) was 4.18 % ID/g and the Drug uptake (Brain [52]) was 1.07 % ID/g. The Drug uptake (Brain [53]) was 1.23 % ID/g, the Drug uptake (Cortex [54]) was 0.45 % ID/g and the Drug uptake (Cortex [55]) was 0.14 % ID/g. The Drug uptake (Testes [56]) was 0.45 % ID/g, the Drug uptake (Testes [57]) was 0.5 % ID/g and the Stability (Plasma [58]) was 21%. It also gave a Stability (Plasma [59]) greater than 98%.
